According to US5955520A, “Photochromic indeno-fused naphthopyrans” (PPG Industries, Inc., priority 1996, dated 1999):

Assays:
[1] = UV/Visible spectrophotometer test of photochromic test squares (lambda max, molal absorptivity); assay type: physicochemical; conditions: for λ max Vis (major) / λ max Vis (minor): activated (colored) form; for λ max Vis (major): major peak; for λ max Vis (major) / λ max Vis (minor) / Molal Absorpt. (ε) / λ max UV: test square; for λ max Vis (minor): minor peak; for Molal Absorpt. (ε): at λ max in the UV, ε=A/bm; for λ max UV: ultraviolet wavelength closest to the visible spectrum
Experimental: (§1) Testing was done with the Example 1 and Comparative Example 1 photochromic naphthopyrans incorporated into polymeric samples by the following method. The quantity of naphthopyran calculated to yield a 1.5 times 10^-3 molal solution was added to a flask containing 50 grams of a monomer blend of 4 parts ethoxylated bisphenol A dimethacrylate (BPA 2EO DMA), 1 part poly(ethylene glycol) 600 dimethacrylate, and 0.033 weight percent 2,2'-azobis(2-methyl proprionitrile) (AIBN). The naphthopyran was dissolved into the monomer blend by stirring and gentle heating, if necessary. After a clear solution was obtained, it was poured into a flat sheet mold having the interior dimensions of 2.2 mm×6 inches (15.24 cm)×6 inches (15.24 cm). The mold was sealed and placed in a horizontal air flow, programmable oven set to increase the temperature from 40° C. to 95° C. over a 5 hour interval, hold the temperature at 95° C. for 3 hours and then lower it to 60° C., for at least 2 hours before the end of the curing cycle. After the mold was opened, the polymer sheet was cut using a diamond blade saw into 2 inch (5.1 centimeters) test squares.
The photochromic test square polymerizates of Example 1 and Comparative Example 1 prepared in Part A were tested in a UV/Visible spectrophotometer to determine the lambda (λ) max (Vis) and the lambda max (UV) wavelengths. The lambda max (Vis) is the wavelength of the visible spectrum at which the maximum absorption of the activated (colored) form of the photochromic compound in a test square occurs. The lambda max (UV) is the wavelength of the ultraviolet range closest to the visible spectrum at which the absorption of the photochromic compound occurs.
The molal absorptivity or molal extinction coefficient (ε) reported in Table 2 is equal to the absorbance of the photochromic compound in a test square at the λ max in the UV (A) divided by the thickness of the test square in centimeters (b) multiplied by the concentration of the photochromic compound in the test square in moles per kilogram (m) according to the formula: ε=A/bm

[2] = photochromic response rates on an optical bench (test squares); assay type: physicochemical; conditions: for ΔOD @ Saturation: UV exposure continued for 20 minutes; for ΔOD @ Saturation / Sensitivity ΔOD/min: polymer test square, 75° F.; for Sensitivity ΔOD/min: first five (5) seconds of UV exposure, expressed per minute, 1.5 times 10^-3 molal; for Bleach Rate T 1/2: time for absorbance to reach one half the highest absorbance after removal of activating light, room temperature (75° F., 23.9° C.)
Experimental: as §1
The photochromic test squares of Part A were tested for photochromic response rates on an optical bench. Prior to testing on the optical bench, the photochromic test squares were exposed to 365 nanometer ultraviolet light for about 15 minutes to activate the photochromic compounds and then placed into a 76° C. oven for about 15 minutes to bleach the photochromic compounds. The test squares were then cooled to room temperature, exposed to fluorescent room lighting for at least 2 hours and then kept covered for at least 2 hours prior to testing on an optical bench maintained at 75° F. (23.90° C.).
The optical bench comprises a 150 watt Xenon arc lamp, a tungsten lamp, power supplies for both lamps, condensing lenses as needed to maintain collimated light beams from both lamps, a remote controlled shutter, a copper sulfate bath acting as a heat sink for the arc lamp, a Schott WG-320 nm cut-off filter which removes short wavelength radiation, neutral density filter(s), a sample holder in which the sample to be tested is inserted, a photopic filter, light detector, and radiometer assembly, a strip chart recorder, and a means for maintaining the alignment of the aforestated components during testing.
Change in optical density (Δ OD) of a sample was determined by inserting a photochromic test sample in the bleached state into the sample holder, adjusting the transmittance scale to 100%, opening the shutter from the Xenon lamp to provide ultraviolet radiation to change the sample from the bleached state to an activated (darkened) state, measuring the transmittance through the sample. The transmittance was measured by directing a beam of light from the tungsten lamp at a small angle normal to the surface of the sample, through the sample, and to a photopic filter, light detector and radiometer assembly. The photopic filter passes wavelengths such that the detector mimics the response of the human eye and produces output signals that are processed by the radiometer. The change in optical density was calculated according to the formula Δ OD=log(100/%Ta) where %Ta is the percent transmittance in the activated state and the logarithm is to the base 10.
The Δ OD/Min, which represents the sensitivity of the photochromic compound's response to UV light, was measured over the first five (5) seconds of UV exposure, then expressed on a per minute basis. The saturation optical density (OD) was taken under identical conditions as the Δ OD/Min, except UV exposure was continued for 20 minutes. The lambda max (Vis) is the wavelength in the visible spectrum at which the maximum absorption of the activated (colored) form of the photochromic compound in the test square occurs. […]

[3] = in comparison to Comparative Example (CE) 1

SMILES	λ max Vis (major) [1] [nm]	λ max Vis (minor) [1] [nm]	Molal Absorpt. (ε) [1]	λ max UV [1] [nm]	ΔOD @ Saturation [2]	Sensitivity ΔOD/min [2]	Bleach Rate T 1/2 [2] [s]	molal absorptivity (ε) in the UV spectrum (in words) ([1]; in comparison to CE 1)	λ max UV and λ max Vis of the major peak (in words) ([1]; in comparison to CE 1, bathochromic shift)	bleach rate, i.e., fade rate (in words) [2]	sensitivity, i.e., coloration rate (in words) [2, 3]	Δ OD at saturation, i.e., activated intensity (in words) [2, 3]
COC(=O)c1c2c(c3ccccc3c1-c1ccccc1)OC(c1ccccc1)(c1ccccc1)C=C2 [CE 1, 2,2-diphenyl-5-methoxycarbonyl-6-phenyl-[2H]-naphtho[1,2-b]pyran, reference compound]	482	407	5709	346	0.68	0.19 ΔOD/min	230					
CCOC(=O)CC1(O)c2ccccc2-c2c1c1c(c3ccccc23)OC(c2ccccc2)(c2ccccc2)C=C1 (stereo not shown) [Example 1, 3,3-diphenyl-13-hydroxy-13-(2-oxo-2-ethoxyethyl)-1H-indeno[2,1-f]naphtho[1,2-b] pyran]	536	425	12,218	360	1.0	0.34 ΔOD/min	338	higher molal absorptivity	higher λ max UV and λ max Vis of the major peak	acceptable bleach rate	greater sensitivity	higher Δ OD at saturation
